Experimental data taken from PMC4657098, “A Review of the Updated Pharmacophore for the Alpha 5 GABA(A) Benzodiazepine Receptor Model” (International Journal of Medicinal Chemistry, 2015).
Where two headings read alike, the source gives them in different places.

Tests used:
[1] = target: T1, α6β3γ2 GABAA/BzR (Homo sapiens, UniProt P18507+Q16445); parameters: expressed in transfected cells; host or cells: LTK cells (given for XLi-093 only); conditions: read-out: Affinity Ki α6; cited from earlier work
[2] = target: T2, α2β3γ2 GABAA/BzR (Homo sapiens, UniProt P18507+P47869); parameters: expressed in transfected cells; host or cells: LTK cells (given for XLi-093 only); conditions: read-out: Affinity Ki α2; cited from earlier work
[3] = target: T3, α3β3γ2 GABAA/BzR (Homo sapiens, UniProt P18507+P34903); parameters: expressed in transfected cells; host or cells: LTK cells (given for XLi-093 only); conditions: read-out: Affinity Ki α3; cited from earlier work
[4] = target: T4, α1β3γ2 GABAA/BzR (Homo sapiens, UniProt P14867+P18507); parameters: expressed in transfected cells; host or cells: LTK cells (given for XLi-093 only); conditions: read-out: Affinity Ki α1; cited from earlier work
[5] = target: T5, α5β3γ2 GABAA/BzR (Homo sapiens, UniProt P18507+P31644); parameters: expressed in transfected cells; host or cells: LTK cells (given for XLi-093 only); conditions: read-out: Affinity Ki α5; cited from earlier work
[6] = test system: Bz BS of GABA(A) receptors; conditions: cited from earlier work
[7] = target: T4, α1β3γ2 GABAA/BzR; assay: Competition binding to HEK cell membranes, α1β3γ2; parameters: expressed in transfected cells
[8] = target: T1, α6β3γ2 GABAA/BzR; assay: Competition binding to HEK cell membranes, α6β3γ2; parameters: expressed in transfected cells
[9] = target: T2, α2β3γ2 GABAA/BzR; assay: Competition binding to HEK cell membranes, α2β3γ2; parameters: expressed in transfected cells
[10] = target: T5, α5β3γ2 GABAA/BzR; assay: Competition binding to HEK cell membranes, α5β3γ2; parameters: expressed in transfected cells
[11] = target: T3, α3β3γ2 GABAA/BzR; assay: Competition binding to HEK cell membranes, α3β3γ2; parameters: expressed in transfected cells
[12] = target: T6, α4β3γ2 GABAA/BzR (Homo sapiens, UniProt P18507+P48169); assay: biochemical; assay type: binding
T6 construct: expressed in transfected cells; host or cells: LTK cells (given for XLi-093 only)

SMILES | Ki ([7]; read-out: Ki α1) | Ki ([8]; read-out: Ki α6) | Ki ([9]; read-out: Ki α2) | Ki ([10]; read-out: Ki α5) | Ki ([11]; read-out: Ki α3) | Ki ([12]; read-out: Ki α4) | also measured
CC(C)(C)OC(=O)c1cc2c(cn1)[nH]c1ccc(-c3cccs3)cc12 [35(WYS12)] | – | – | – | – | – | – | Ki [1]: 5000 nM; Ki [2]: 166 nM; Ki [3]: 314 nM; Ki [4]: 37 nM; Ki [5]: 2860 nM
COC(=O)c1cc2c(cn1)[nH]c1ccccc12 [-CCM, methyl beta-carboline-3-carboxylate] | – | – | – | – | – | – | modulation ([6]; Supplement Table 1): inverse agonist
CCOC(=O)c1cc2c(cn1)[nH]c1ccccc12 [BCCE, reference compound] | 1.2 nM | – | – | – | – | – | modulation [6]: inverse agonist
Cc1nnc2ccc(-c3cccc(C(F)(F)F)c3)nn12 [CL-218,872] | – | – | – | – | – | – | modulation ([6]; Supplement Table 1): partial agonist
CCCC(=O)c1cc2c(cn1)[nH]c1ccc(F)cc12 [CM-A57] | 3.7 nM | 1000 nM | 27 nM | 254 nM | 40 nM | – | Ki [1]: > 2500 nM; Ki [2]: 27 nM; Ki [3]: 40 nM; Ki [4]: 3.7 nM; Ki [5]: 254 nM
CC(C)(C)OC(=O)c1cc2c(cn1)[nH]c1ccc(C(C)(C)C)cc12 [CM-A82a] | 2.78 nM | – | 8.93 nM | 7.49 nM | 24.5 nM | – | Ki ([8]; Ki α6): 1000 nM; Ki ([9]; Ki α2): 8.93 nM; Ki [12]: 1000 nM; Ki ([7]; Ki α1): 2.78 nM; Ki ([10]; Ki α5): 7.49 nM; Ki [2]: 8.93 nM; Ki [3]: 24.5 nM; Ki [4]: 2.78 nM; Ki [5]: 7.49 nM; Ki ([11]; Ki α3): 24.5 nM
CC(C)(C)OC(=O)c1cc2c(cn1)[nH]c1ccc(F)cc12 [CM-A87] | 1.62 nM | – | 4.54 nM | 4.61 nM | 14.7 nM | – | Ki ([8]; Ki α6): 1000 nM; Ki ([9]; Ki α2): 4.54 nM; Ki [12]: 1000 nM; Ki ([7]; Ki α1): 1.62 nM; Ki ([10]; Ki α5): 4.61 nM; Ki [2]: 4.54 nM; Ki [3]: 14.7 nM; Ki [4]: 1.62 nM; Ki [5]: 4.61 nM; Ki ([11]; Ki α3): 14.7 nM
COc1ccc2c(c1)C(=O)N1CCC[C@H]1c1c(C(=O)OCc3ccccc3)ncn1-2 [CM-E10] | 23 nM | 96 nM | 26 nM | 0.51 nM | 14 nM | 215 nM | –
COc1ccc2c(c1)C(=O)N1CCCC1c1c(C(=O)OCC(C)C)ncn1-2 (stereo not drawn) [CM-E11] | 333 nM | 750 nM | 308 nM | 14 nM | 161 nM | 394 nM | –
CN1C(=O)CN=C(c2ccccc2F)c2cc([N+](=O)[O-])ccc21 [FLUNITRAZEPAM, flunitrazepam] | – | – | – | – | – | – | modulation [6]: agonist
O=C(OCC(F)(F)F)c1cc2c(cn1)[nH]c1ccccc12 [MMB-II-74] | 3 nM | 1000 nM | 24.5 nM | 126 nM | 41.7 nM | 500 nM | –
CCC(OC(=O)c1ncn2c1C1CCCN1C(=O)c1cc(Br)ccc1-2)C(F)(F)F (stereo not drawn) [MMB-II-87] | 200 nM | 333 nM | 333 nM | 5.4 nM | 107 nM | 109 nM | –
CC(C)OC(=O)c1ncn2c1[C@@H]1CCCN1C(=O)c1cc(Br)ccc1-2 [MMB-II-90] | 20 nM | 36 nM | 24 nM | 0.25 nM | 5.7 nM | 9 nM | –
CC(OC(=O)c1ncn2c1C1CCCN1C(=O)c1ccccc1-2)C(F)(F)F (stereo not drawn) [MMB-III-14] | 13 nM | 333 nM | 13 nM | 1.1 nM | 6.9 nM | 333 nM | –
CC(C)OC(=O)c1ncn2c1[C@@H]1CCCN1C(=O)c1ccccc1-2 [MMB-III-016] | 3 nM | 211 nM | 1.97 nM | 0.26 nM | 2 nM | 1070 nM | –
O=C(OC(C(F)(F)F)C(F)(F)F)c1ncn2c1C1CCCN1C(=O)c1ccccc1-2 (stereo not drawn) [MMB-III-018] | 117 nM | 976 nM | 140 nM | 14 nM | 78 nM | 3500 nM | –
C#Cc1ccc2c(c1)C(c1ccccc1F)=NCC(=O)N2C [OMB-18] | 3.9 nM | 5 nM | 1.2 nM | 0.8 nM | 3.4 nM | 1730 nM | –
